The results in this text go back to patent US20260042772A1, “FURO PYRIMIDINE DERIVATES” (Merck Patent GmbH, priority 2022, published 2026).

A value given as a limit tells only on which side of the number the result lay.

For assay [1], the system named is chloroquine sensitive (CQS) strain (NF54) of P. falciparum. As to the kind of experiment: In vitro antiplasmodial activity, Assay A (parasite lactate dehydrogenase assay). Type of assay: cell-based. The conditions noted are these: Plasmodium falciparum. The procedure:
Test samples were screened for in vitro antiplasmodial activity against a chloroquine sensitive (CQS) strain (NF54) of the malaria parasite P. falciparum. Continuous in vitro cultures of asexual erythrocyte stages of P. falciparum were maintained using a modified version of the method of Trager and Jensen (1976).1 Quantitative assessment of antiplasmodial activity in vitro was determined via the parasite lactate dehydrogenase assay using a modified method described by Makler (1993). The test samples were tested in triplicate on two separate occasions. Further dilutions were prepared in complete medium on the day of the experiment. Samples were tested as a suspension if not completely dissolved. Chloroquine and artesunate were used as the reference drugs. A full dose-response were performed starting at a concentration of 3000 nM, which is then serially diluted 2-fold in complete medium to give 10 concentrations; with the lowest concentration being approximately 6 nM. The same dilution techniques were used for all samples. References were tested at a starting concentration of 1000 ng/mL. The highest concentration of solvent to which the parasites were exposed has no measurable effect on the parasite viability (data not shown).

The subject of assay [2] is CQC sensitive strain (NF54) of P. falciparum. The assay is described as follows: In vitro antiplasmodial activity, Assay B (as described by Vennerstrom et al. 2004). In kind it is cell-based. The conditions noted are these: Plasmodium falciparum; NF54, Vennerstrom et al. method. The procedure: Compounds were screened against CQC sensitive strain (NF54) of P. falciparum in vitro as described by Vennerstrom et al. (2004). A full dose-response were performed starting at a concentration of 3000 nM, which is then serially diluted 2-fold in complete medium to give 10 concentrations; with the lowest concentration being approximately 6 nM. The same dilution techniques were used for all samples. References were tested at a starting concentration of 1000 ng/mL. The highest concentration of solvent to which the parasites were exposed has no measurable effect on the parasite viability (data not shown).

A word on the IC50: it is the point on the concentration scale where inhibition reaches its midpoint. In the case of `C[C@@H]1CN(C(=O)c2ccc(-c3cc4ncnc(-c5cccc(C(C)(C)O)c5F)c4o3)cc2)CCO1` [Compound D192, (R)-(4-(4-(2-fluoro-3-(2-hydroxypropan-2-yl)phenyl)furo[3,2-d]pyrimidin-6-yl)phenyl)(2-methylmorpholino) methanone], the IC50 in assay [1] and in assay [2] was less than 0.015 µM in each case.

As to `C[C@@H]1COCCN1C(=O)c1ccc(-c2cc3ncnc(-c4ccnc(C(C)(C)O)c4)c3o2)cc1` [Compound D160, (R)-(4-(4-(2-(2-hydroxypropan-2-yl)pyridin-4-yl)furo[3,2-d]pyrimidin-6-yl)phenyl)(3-methylmorpholino) methanone], the IC50 in assay [1] is 0.015 to 0.05 µM; in assay [2], less than 0.015 µM.

`C[C@H]1CN(C(=O)c2ccc(-c3cc4ncnc(-c5cccc(C(C)(C)O)c5F)c4o3)cc2)C[C@H](C)O1` [Compound D194, ((2S,6S)-2,6-dimethylmorpholino)(4-(4-(2-fluoro-3-(2-hydroxypropan-2-yl)phenyl)furo[3,2-d]pyrimidin-6-yl)phenyl)methanone]: the IC50 in assay [1] and in assay [2] was less than 0.015 µM in each case.

On to `COC(=O)c1cccc(-c2cc3ncnc(-c4ccnc(C(C)(C)O)c4)c3o2)c1` [Compound D163, methyl 3-(4-(2-(2-hydroxypropan-2-yl)pyridin-4-yl)furo[3,2-d]pyrimidin-6-yl)benzoate], for which the IC50 in assay [1] was less than 0.015 µM.

Turning to `CC(C)(O)c1cccc(-c2ncnc3cc(-c4ccc(S(N)(=O)=O)cc4)oc23)c1F` [Compound P33, 4-(4-(2-fluoro-3-(2-hydroxypropan-2-yl)phenyl)furo[3,2-d]pyrimidin-6-yl)benzenesulfonamide], the 50% inhibitory concentration (IC50) in assay [1] was 0.015 to 0.05 µM.

Consider `CC1COCC(C)N1C(=O)c1ccc(-c2cc3ncnc(-c4ccnc(C(C)(C)O)c4)c3o2)cc1` (stereo not drawn) [Compound D171, (3,5-dimethylmorpholino)(4-(4-(2-(2-hydroxypropan-2-yl)pyridin-4-yl)furo[3,2-d]pyrimidin-6-yl)phenyl)methanone], for which the IC50 in assay [1] was greater than 0.05 µM.

With `CC(C)(O)c1cc(F)cc(-c2ncnc3cc(-c4ccc(C(=O)N5C[C@H]6C[C@@H]5CO6)cc4)oc23)c1` [Compound D173, ((1R,4R)-2-oxa-5-azabicyclo[2.2.1]heptan-5-yl)(4-(4-(3-fluoro-5-(2-hydroxypropan-2-yl)phenyl)furo[3,2-d]pyrimidin-6-yl)phenyl)methanone], the IC50 in assay [1] was less than 0.015 µM.

Compound `CC(C)(O)c1cc(-c2ncnc3cc(-c4ccc(C(=O)N5CCOCC5)cc4)oc23)ccc1F` [Compound P32, (4-(4-(4-fluoro-3-(2-hydroxypropan-2-yl)phenyl)furo[3,2-d]pyrimidin-6-yl)phenyl)(morpholino) methanone] showed an IC50 in assay [1] greater than 0.05 µM.

In assay [1], `CC(C)(O)c1cc(F)cc(-c2ncnc3cc(-c4ccc(C(=O)N5CCOCC5)cc4)oc23)c1` [Compound D165, (4-(4-(3-fluoro-5-(2-hydroxypropan-2-yl)phenyl)furo[3,2-d]pyrimidin-6-yl)phenyl)(morpholino) methanone] came in with an IC50 of less than 0.015 µM.

In assay [1], `CC(C)(C)OC(=O)c1ccc(-c2cc3ncnc(-c4ccnc(C(C)(C)O)c4)c3o2)cc1` [Compound D162, tert-butyl 4-(4-(2-(2-hydroxypropan-2-yl)pyridin-4-yl)furo[3,2-d]pyrimidin-6-yl)benzoate] registered an IC50 of less than 0.015 µM.

Regarding `CC(C)(O)c1cccc(-c2ncnc3cc(-c4ccc(C(=O)N5CCOCC5)cc4)oc23)c1` [Compound P13, (4-(4-(3-(2-hydroxypropan-2-yl)phenyl)furo[3,2-d]pyrimidin-6-yl)phenyl)(morpholino) methanone], in assay [1], the IC50 is greater than 0.05 µM.

Take `CC(C)(O)c1cc(-c2ncnc3cc(-c4cccc(C(=O)O)c4)oc23)ccn1` [Compound D164, 3-(4-(2-(2-hydroxypropan-2-yl)pyridin-4-yl)furo[3,2-d]pyrimidin-6-yl)benzoic acid]: the IC50 in assay [1] was less than 0.015 µM.
